Reference: ChEMBL document CHEMBL6127041, “Dual-target inhibitors based on acetylcholinesterase: Novel agents for Alzheimer's disease” (Eur J Med Chem, 2024)

Columns and labels:
Acetylcholinesterase [1] = target: T1, Acetylcholinesterase (Homo sapiens, UniProt P22303); experiment: Inhibition of AChE (unknown origin)
Acetylcholinesterase [2] = target: T1, Acetylcholinesterase; experiment: Inhibition of AChE (unknown origin) by Ellman's method
Acetylcholinesterase [3] = target: T1, Acetylcholinesterase; experiment: Inhibition of AChE (unknown origin) using acetylthiocholine iodide as substrate measured after 15 mins by Ellman's method
Beta-secretase 1 [4] = target: T2, Beta-secretase 1 (Homo sapiens, UniProt P56817); experiment: Inhibition of BACE-1 (unknown origin) measured after 2 hrs by FRET assay
T2 sequence (P56817 whole entry): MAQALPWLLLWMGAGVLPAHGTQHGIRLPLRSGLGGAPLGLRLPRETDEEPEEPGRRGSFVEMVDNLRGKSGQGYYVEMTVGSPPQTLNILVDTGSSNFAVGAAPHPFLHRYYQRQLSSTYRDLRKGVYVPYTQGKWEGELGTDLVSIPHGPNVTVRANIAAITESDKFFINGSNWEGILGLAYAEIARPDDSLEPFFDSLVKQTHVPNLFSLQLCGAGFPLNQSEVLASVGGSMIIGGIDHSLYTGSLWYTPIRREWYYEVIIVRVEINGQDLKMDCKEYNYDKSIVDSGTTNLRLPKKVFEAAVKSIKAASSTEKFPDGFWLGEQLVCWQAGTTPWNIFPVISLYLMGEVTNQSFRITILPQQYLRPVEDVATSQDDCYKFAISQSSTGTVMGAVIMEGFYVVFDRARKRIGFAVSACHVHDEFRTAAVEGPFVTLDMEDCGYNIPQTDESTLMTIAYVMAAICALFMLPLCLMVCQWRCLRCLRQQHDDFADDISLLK

Acetylcholinesterase [5] = target: T3, Acetylcholinesterase (Electrophorus electricus, UniProt O42275); experiment: Inhibition of electric eel AChE using acetylthiocholine iodide as substrate preincubated with compounds for 20 mins followed by substrate addition and measured after 5 mins by Ellman's method
T3 sequence (O42275 whole entry): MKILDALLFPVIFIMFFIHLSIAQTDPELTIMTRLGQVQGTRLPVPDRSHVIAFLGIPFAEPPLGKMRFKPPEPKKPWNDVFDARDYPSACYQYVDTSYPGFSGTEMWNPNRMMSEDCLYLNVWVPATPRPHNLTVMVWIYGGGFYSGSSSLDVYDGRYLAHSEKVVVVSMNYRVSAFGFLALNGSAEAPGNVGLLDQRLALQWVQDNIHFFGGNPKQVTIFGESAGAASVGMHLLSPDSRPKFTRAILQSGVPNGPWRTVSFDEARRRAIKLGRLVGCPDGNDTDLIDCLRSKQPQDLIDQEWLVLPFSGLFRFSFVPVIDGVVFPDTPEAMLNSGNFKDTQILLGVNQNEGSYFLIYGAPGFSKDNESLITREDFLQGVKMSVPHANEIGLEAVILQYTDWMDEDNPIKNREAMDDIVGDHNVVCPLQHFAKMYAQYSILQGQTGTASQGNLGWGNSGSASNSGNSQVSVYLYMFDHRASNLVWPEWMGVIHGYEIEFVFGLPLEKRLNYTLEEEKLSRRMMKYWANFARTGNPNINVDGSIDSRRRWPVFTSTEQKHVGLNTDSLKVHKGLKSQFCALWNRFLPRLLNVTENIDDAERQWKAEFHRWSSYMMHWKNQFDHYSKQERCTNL

[6] = target: T4, Amine oxidase [flavin-containing] B (Homo sapiens, UniProt P27338); experiment: Inhibition of MAO-B (unknown origin)
T4 sequence (P27338 whole entry): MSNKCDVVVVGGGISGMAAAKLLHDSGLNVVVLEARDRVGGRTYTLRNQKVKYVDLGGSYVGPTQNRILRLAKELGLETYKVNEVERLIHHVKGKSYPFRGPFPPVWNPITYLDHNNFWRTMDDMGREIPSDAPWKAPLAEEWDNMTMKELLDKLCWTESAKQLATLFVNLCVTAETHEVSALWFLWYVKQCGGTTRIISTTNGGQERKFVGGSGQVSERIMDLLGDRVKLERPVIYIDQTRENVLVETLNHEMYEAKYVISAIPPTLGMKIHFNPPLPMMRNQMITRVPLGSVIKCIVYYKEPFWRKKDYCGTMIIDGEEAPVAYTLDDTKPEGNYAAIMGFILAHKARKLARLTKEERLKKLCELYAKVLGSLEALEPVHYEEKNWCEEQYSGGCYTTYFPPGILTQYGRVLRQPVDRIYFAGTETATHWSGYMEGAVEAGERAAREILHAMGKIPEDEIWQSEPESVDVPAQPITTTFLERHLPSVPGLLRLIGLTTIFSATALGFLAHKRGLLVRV

Acetylcholinesterase [7] = target: T1, Acetylcholinesterase
Description: Inhibition of human AChE by Ellman's method

[8] = Permeability of compound at pH 7.4 by PAMPA assay; type: ADME; settings: read-out: permeability
[9] = target: High affinity cGMP-specific 3',5'-cyclic phosphodiesterase 9A (Homo sapiens, UniProt O76083); experiment: Inhibition of PDE9A (unknown origin)
High affinity cGMP-specific 3',5'-cyclic phosphodiesterase 9A, sequence (O76083 whole entry): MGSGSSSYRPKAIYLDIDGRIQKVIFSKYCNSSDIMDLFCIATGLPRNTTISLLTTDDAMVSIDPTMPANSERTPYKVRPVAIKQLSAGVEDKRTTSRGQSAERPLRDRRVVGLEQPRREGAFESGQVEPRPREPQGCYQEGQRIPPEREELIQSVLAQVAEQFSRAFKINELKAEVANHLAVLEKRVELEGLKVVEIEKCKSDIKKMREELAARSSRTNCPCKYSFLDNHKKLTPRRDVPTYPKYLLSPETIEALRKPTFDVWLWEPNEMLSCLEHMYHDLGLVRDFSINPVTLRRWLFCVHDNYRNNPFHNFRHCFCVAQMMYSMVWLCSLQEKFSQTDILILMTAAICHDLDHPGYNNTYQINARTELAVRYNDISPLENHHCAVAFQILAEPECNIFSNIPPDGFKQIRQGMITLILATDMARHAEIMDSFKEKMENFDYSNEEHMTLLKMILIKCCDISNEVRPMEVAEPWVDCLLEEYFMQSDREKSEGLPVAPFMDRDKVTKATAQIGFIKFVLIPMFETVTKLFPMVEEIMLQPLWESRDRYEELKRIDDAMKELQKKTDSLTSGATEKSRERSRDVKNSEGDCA

Acetylcholinesterase [10] = target: T1, Acetylcholinesterase; experiment: Inhibition of AChE (unknown origin) incubated for 1 hr by Ellman's method
Beta-secretase 1 [11] = target: T2, Beta-secretase 1; experiment: Inhibition of BACE-1 (unknown origin)
[12] = target: T5, Amine oxidase [flavin-containing] A (Homo sapiens, UniProt P21397); experiment: Inhibition of MAO-A (unknown origin)
T5 sequence (P21397 whole entry): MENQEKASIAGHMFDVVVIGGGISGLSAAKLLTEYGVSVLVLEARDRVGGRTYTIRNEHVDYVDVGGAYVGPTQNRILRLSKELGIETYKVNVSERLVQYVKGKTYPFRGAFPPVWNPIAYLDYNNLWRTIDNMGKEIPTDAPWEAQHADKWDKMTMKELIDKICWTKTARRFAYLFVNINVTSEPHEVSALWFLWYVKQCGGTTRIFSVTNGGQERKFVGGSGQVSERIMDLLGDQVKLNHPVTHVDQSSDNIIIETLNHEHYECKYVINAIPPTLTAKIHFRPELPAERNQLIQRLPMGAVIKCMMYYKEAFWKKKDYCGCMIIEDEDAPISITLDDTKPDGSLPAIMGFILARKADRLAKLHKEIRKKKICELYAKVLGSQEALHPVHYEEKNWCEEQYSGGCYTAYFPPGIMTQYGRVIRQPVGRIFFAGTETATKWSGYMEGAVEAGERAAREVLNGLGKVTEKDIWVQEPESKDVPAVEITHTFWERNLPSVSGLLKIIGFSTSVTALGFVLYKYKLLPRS

Acetylcholinesterase [13] = target: T1, Acetylcholinesterase; experiment: Inhibition of AChE (unknown origin) using acetylthiocholine iodide as substrate measured for 20 mins by Ellman's method
Beta-secretase 1 [14] = target: T2, Beta-secretase 1; experiment: Inhibition of BACE-1 (unknown origin) incubated for 60 mins by TR-FRET assay
Acetylcholinesterase [15] = target: T1, Acetylcholinesterase; experiment: Inhibition of human recombinant AChE using acetylthiocholine iodide as substratE incubated for 20 mins by DTNB reagent based Ellman's method
Beta-secretase 1 [16] = target: T2, Beta-secretase 1; experiment: Inhibition of human BACE-1 by FRET assay
Acetylcholinesterase [17] = target: T3, Acetylcholinesterase; experiment: Inhibition of electric eel AChE using acetylthiocholine iodide as substrate preincubated for 5 mins followed by substrate addition by DTNB reagent based Ellman's method
Cholinesterase [18] = target: Cholinesterase (Homo sapiens, UniProt P06276); experiment: Inhibition of BChE (unknown origin) incubated for 10 mins by Ellman's method
Cholinesterase (Homo sapiens, UniProt P06276), sequence (P06276 whole entry): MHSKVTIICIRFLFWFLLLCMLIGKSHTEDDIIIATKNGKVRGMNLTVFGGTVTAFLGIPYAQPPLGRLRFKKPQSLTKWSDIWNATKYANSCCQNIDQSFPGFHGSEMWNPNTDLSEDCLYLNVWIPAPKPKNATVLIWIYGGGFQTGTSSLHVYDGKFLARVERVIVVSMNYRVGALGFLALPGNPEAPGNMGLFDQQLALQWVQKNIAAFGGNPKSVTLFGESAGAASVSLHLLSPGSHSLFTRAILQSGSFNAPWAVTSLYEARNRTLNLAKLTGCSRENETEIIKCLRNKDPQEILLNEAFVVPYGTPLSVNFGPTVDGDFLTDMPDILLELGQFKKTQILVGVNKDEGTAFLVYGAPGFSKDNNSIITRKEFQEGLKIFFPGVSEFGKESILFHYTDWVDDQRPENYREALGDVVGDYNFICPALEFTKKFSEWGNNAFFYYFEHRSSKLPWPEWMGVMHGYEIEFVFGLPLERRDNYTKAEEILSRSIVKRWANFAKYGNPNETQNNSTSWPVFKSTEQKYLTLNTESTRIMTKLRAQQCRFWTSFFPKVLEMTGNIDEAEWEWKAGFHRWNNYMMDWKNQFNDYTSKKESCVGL

Acetylcholinesterase [19] = target: T1, Acetylcholinesterase; experiment: Inhibition of AChE (unknown origin) at 40 uM by Ellman's method relative to control
[20] = target: Glycogen synthase kinase-3 beta (Homo sapiens, UniProt P49841); experiment: Inhibition of human recombinant GSK3beta by ADP-Glo Kinase Assay
Glycogen synthase kinase-3 beta, sequence (P49841 whole entry): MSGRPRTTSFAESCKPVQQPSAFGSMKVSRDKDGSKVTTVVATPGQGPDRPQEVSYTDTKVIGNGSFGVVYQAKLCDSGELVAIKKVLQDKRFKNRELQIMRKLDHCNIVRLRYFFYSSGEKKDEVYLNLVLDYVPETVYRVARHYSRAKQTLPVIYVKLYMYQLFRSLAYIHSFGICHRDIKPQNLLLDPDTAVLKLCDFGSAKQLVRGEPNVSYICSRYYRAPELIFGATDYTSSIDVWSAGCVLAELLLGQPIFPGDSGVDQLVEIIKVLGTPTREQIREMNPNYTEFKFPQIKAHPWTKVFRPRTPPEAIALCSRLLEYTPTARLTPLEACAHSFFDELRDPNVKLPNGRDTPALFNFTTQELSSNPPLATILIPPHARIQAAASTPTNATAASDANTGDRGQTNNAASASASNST

Acetylcholinesterase [21] = target: T1, Acetylcholinesterase; remark: listed apart in the source
Cholinesterase [22] = target: Cholinesterase (Equus caballus, UniProt P81908); experiment: Inhibition of equine serum BuChE using butyrylthiocholine iodide as substrate preincubated for 5 mins followed by substrate addition by DTNB reagent based Ellman's method
Cholinesterase (Equus caballus, UniProt P81908), sequence (P81908 whole entry): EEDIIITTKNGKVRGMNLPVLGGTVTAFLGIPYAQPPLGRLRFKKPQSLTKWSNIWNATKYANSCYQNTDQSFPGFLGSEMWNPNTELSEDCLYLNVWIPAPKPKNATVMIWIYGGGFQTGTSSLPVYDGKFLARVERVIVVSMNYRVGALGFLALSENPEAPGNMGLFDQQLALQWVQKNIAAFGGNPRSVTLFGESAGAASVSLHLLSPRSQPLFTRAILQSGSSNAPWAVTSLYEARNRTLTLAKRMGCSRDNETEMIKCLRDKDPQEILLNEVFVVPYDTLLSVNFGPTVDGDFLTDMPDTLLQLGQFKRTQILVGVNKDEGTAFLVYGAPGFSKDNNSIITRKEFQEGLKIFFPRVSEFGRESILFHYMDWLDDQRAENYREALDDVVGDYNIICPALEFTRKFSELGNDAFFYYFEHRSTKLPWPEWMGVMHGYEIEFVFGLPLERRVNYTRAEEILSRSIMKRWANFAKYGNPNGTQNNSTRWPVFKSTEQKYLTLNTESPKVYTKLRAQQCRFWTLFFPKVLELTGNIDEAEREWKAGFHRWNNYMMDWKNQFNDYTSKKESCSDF

T1 sequence (P22303 whole entry): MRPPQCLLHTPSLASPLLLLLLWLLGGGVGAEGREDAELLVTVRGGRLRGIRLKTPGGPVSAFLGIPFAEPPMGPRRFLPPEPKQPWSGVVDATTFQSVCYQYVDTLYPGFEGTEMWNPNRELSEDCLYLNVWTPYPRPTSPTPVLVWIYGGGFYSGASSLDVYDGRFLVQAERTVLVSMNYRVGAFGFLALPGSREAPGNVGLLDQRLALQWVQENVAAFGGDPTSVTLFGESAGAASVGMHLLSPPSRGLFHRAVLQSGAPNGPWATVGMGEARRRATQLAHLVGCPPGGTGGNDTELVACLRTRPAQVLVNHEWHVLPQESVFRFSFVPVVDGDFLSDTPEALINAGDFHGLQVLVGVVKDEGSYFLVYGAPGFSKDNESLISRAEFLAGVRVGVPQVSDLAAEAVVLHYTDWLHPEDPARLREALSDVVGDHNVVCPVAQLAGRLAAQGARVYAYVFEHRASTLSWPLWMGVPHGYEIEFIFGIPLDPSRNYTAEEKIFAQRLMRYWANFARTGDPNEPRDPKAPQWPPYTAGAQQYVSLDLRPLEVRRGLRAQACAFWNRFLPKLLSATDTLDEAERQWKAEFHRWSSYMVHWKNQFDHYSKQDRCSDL

O=C(/C=C/c1ccccc1)c1ccccc1 [CHALCONE]
IC50 (Acetylcholinesterase [1]): 28200 nM

Cn1c(NCCCCCCCNc2c3c(nc4cc(Cl)ccc24)CCCC3)nc(-c2ccncc2F)cc1=O
IC50 (Acetylcholinesterase [2]): 51.1 nM

Nc1ccccc1C(=O)/C=C/c1cnc2c(c1)OCO2
IC50 (Acetylcholinesterase [3]): 4160 nM

COc1ccc2c(c1)C/C(=C/c1ccccc1-c1ccc3nc(N)ccc3c1)C2=O
IC50 (Beta-secretase 1 [4]): 13.1 nM | IC50 (Acetylcholinesterase [5]): 14.7 nM

COc1ccc(/C=C2\Oc3cc(OCCN4CCCC4)ccc3C2=O)c(OC)c1OC
IC50 [6]: 340 nM | IC50 (Acetylcholinesterase [7]): 1560 nM

COc1cc(/C=C/c2nnc(-c3ccc(C(F)(F)F)cc3)o2)ccc1O
Papp at 18 h [8]: 5.3 ×10⁻⁶ cm/s

O=C1[C@@H]2Cc3c([nH]c4ccccc34)[C@@H](c3ccc4c(c3)OCO4)N2C(=O)CN1CCC1CCN(Cc2ccccc2)CC1
IC50 (Acetylcholinesterase [2]): 30 nM

CSc1ccc(/C=C/C(=O)c2ccccc2N)cn1
IC50 (Acetylcholinesterase [3]): 1220 nM

O=c1[nH]c(COCCC2CCN(Cc3ccccc3)CC2)nc2c1cnn2C1CCCC1
IC50 (Acetylcholinesterase [1]): 230 nM | IC50 [9]: 530 nM

COc1ccc(/C=N/NC(=O)c2ccc(Cl)nc2)cc1OC
IC50 (Acetylcholinesterase [10]): 30 nM | IC50 (Beta-secretase 1 [11]): 400 nM

COc1ccccc1/C=C1\Oc2cc(OCCN3CCCC3)ccc2C1=O
IC50 [12]: > 100000 nM | IC50 [6]: 980 nM | IC50 (Acetylcholinesterase [13]): 2670 nM

COc1cc(/C=C2\Oc3cc(OCCN4CCCCC4)ccc3C2=O)cc(OC)c1OC
IC50 [12]: > 100000 nM | IC50 [6]: 340 nM | IC50 (Acetylcholinesterase [13]): 1560 nM

COc1ccc(-c2ccccc2/C=C2/Cc3cc(OC)ccc3C2=O)cc1
IC50 (Beta-secretase 1 [4]): 99.4 nM | IC50 (Acetylcholinesterase [5]): 21.2 nM

Nc1ccccc1C(=O)/C=C/c1ccc(Cl)nc1
IC50 (Acetylcholinesterase [3]): 19000 nM | IC50 (Beta-secretase 1 [14]): 8340 nM

COc1ccccc1NC(=O)C1CCN(Cc2ccccc2)CC1
IC50 (Acetylcholinesterase [15]): 157 nM | IC50 (Beta-secretase 1 [16]): 277 nM

COc1ccc(NC(=O)C2CCN(Cc3ccccc3)CC2)cc1
IC50 (Acetylcholinesterase [15]): 165 nM | IC50 (Beta-secretase 1 [16]): 253 nM

O=c1[nH]c(CCCCC2CCN(Cc3ccccc3)CC2)nc2c1cnn2C1CCCC1
IC50 (Acetylcholinesterase [1]): 40 nM | IC50 [9]: 280 nM

COc1ccc2c(c1)C/C(=C/c1ccccc1-c1ccccc1)C2=O
IC50 (Beta-secretase 1 [4]): 125 nM | IC50 (Acetylcholinesterase [5]): 29.8 nM

CN(Cc1ccccc1)Cc1ccc(/C=C2/Cc3ccc(OCCCCCN4CCN(C(c5ccc(F)cc5)c5ccc(F)cc5)CC4)cc3C2=O)cc1
IC50 (Beta-secretase 1 [4]): 341 nM | IC50 (Acetylcholinesterase [5]): 44.1 nM

O=C(/C=C/c1ccc(Br)cc1)c1ccc(Cl)s1
IC50 [12]: 1360 nM | IC50 (Acetylcholinesterase [17]): 16200 nM | IC50 (Cholinesterase [18]): 19300 nM | IC50 [6]: 700 nM

COc1ccc([C@@H]2c3[nH]c4ccccc4c3C[C@@H]3C(=O)N(CCC4CCN(Cc5ccccc5)CC4)CC(=O)N23)cc1
inhibition (Acetylcholinesterase [19]): 55.4%

COc1ccc(/C=C/C(=N/Oc2ccc(/C=C/C(=O)c3ccc(F)cc3)cc2)c2ccc(OC)cc2)cc1
IC50 [6]: 20 nM

O=C(N/N=C/c1ccc([N+](=O)[O-])cc1)c1ccc(Cl)nc1
IC50 (Acetylcholinesterase [10]): 20 nM | IC50 (Beta-secretase 1 [11]): 200 nM

O=C(/C=C/c1ccc(Cl)cc1)c1ccc(Cl)s1
IC50 [12]: 1600 nM | IC50 (Acetylcholinesterase [17]): 14800 nM | IC50 (Cholinesterase [18]): 19600 nM | IC50 [6]: 790 nM

CCOc1cc(/C=N/NC(=O)c2ccc(Cl)nc2)ccc1O
IC50 (Acetylcholinesterase [10]): 30 nM | IC50 (Beta-secretase 1 [11]): 700 nM

CCOc1ccc(C(=O)/C=C/c2ccccc2)cc1
IC50 [12]: 28500 nM | IC50 (Acetylcholinesterase [17]): 3230 nM | IC50 [6]: 400 nM

CCN(CCCCOc1ccc(C(=O)/C=C/c2ccc(N(C)C)cc2)c(O)c1)Cc1ccccc1N(C)C
IC50 (Acetylcholinesterase [17]): 130 nM | IC50 (Cholinesterase [18]): 130 nM

O=C(/C=C/c1ccccc1)c1ccc(N2CCOCC2)cc1
IC50 [12]: > 40000 nM | IC50 (Cholinesterase [18]): > 40000 nM

COc1cc(/C=N/NC(=O)c2ccc(Cl)nc2)ccc1O
IC50 (Acetylcholinesterase [10]): 30 nM | IC50 (Beta-secretase 1 [11]): 600 nM

COc1ccc(NC(=O)C2CCN(Cc3ccccc3)CC2)cc1OC
IC50 (Acetylcholinesterase [15]): 145 nM | IC50 (Beta-secretase 1 [16]): 243 nM

Nc1ccccc1C(=O)/C=C/c1cnc2ccccc2c1
IC50 (Acetylcholinesterase [3]): 540 nM | IC50 (Beta-secretase 1 [14]): 16900 nM

CCO/C(C)=N/Oc1ccc(/C=C/C(=O)c2ccc(F)cc2)cc1
IC50 [12]: 17400 nM | IC50 (Acetylcholinesterase [17]): 670 nM | IC50 [6]: 20 nM

CN1CC(=O)N2[C@H](c3ccc4c(c3)OCO4)c3[nH]c4ccccc4c3C[C@@H]2C1=O
Papp at 18 h [8]: 2.16 ×10⁻⁶ cm/s

O=C(CN1CCC(Cc2ccccc2)CC1)c1ccc2ccccc2c1
IC50 (Acetylcholinesterase [7]): 9130 nM

COc1ccc2c(c1)C/C(=C/c1ccccc1-c1ccc3ccccc3c1)C2=O
IC50 (Beta-secretase 1 [16]): 101 nM

COc1ccc([C@@H]2c3[nH]c4ccccc4c3C[C@H]3C(=O)N(CCC4CCN(Cc5ccccc5)CC4)CC(=O)N23)cc1
IC50 (Acetylcholinesterase [2]): 10 nM

O=C(/C=C/c1ccc(F)cc1)c1ccc(Br)s1
IC50 [12]: 4060 nM | IC50 (Acetylcholinesterase [17]): 18200 nM | IC50 (Cholinesterase [18]): 16300 nM | IC50 [6]: 1710 nM

COc1nc(-c2ccnc(NC(=O)C3CC3)c2)sc1C(=O)NCCNc1c2c(nc3ccccc13)CCCC2
IC50 [20]: 66 nM | IC50 (Acetylcholinesterase [21]): 6.4 nM

CN(C)c1ccc(/C=C/C(=O)c2ccc(N3CCOCC3)cc2)cc1
IC50 [12]: > 40000 nM | IC50 (Cholinesterase [18]): > 40000 nM

Cc1ccc(/C=C/C(=O)c2ccccc2N)cn1
IC50 (Acetylcholinesterase [3]): 2920 nM

COC(=O)c1ccc(/C=N/NC(=O)c2ccc(Cl)nc2)cc1
IC50 (Acetylcholinesterase [10]): 100 nM | IC50 (Beta-secretase 1 [11]): 2800 nM

CN1CCN(c2ccc(C(=O)/C=C/c3cc(Br)ccc3F)cc2)CC1
IC50 (Cholinesterase [18]): 9440 nM

CCO/C(C)=N/Oc1ccc(/C=C/C(=O)c2ccc(C)cc2)cc1
IC50 [12]: 15000 nM | IC50 (Acetylcholinesterase [17]): 850 nM | IC50 [6]: 30 nM

O=c1ccoc2ccc(OCCCN3CCCCC3)cc12
IC50 [6]: 7200 nM | IC50 (Acetylcholinesterase [7]): 5580 nM

COc1nc(-c2ccnc(NC(=O)C3CC3)c2)sc1C(=O)NCNc1c2c(nc3ccccc13)CCCC2
IC50 [20]: 68 nM | IC50 (Acetylcholinesterase [21]): 6.3 nM

Clc1ccc(-c2nnc(CNC3CCN(Cc4ccccc4)CC3)o2)c(Cl)c1
IC50 (Beta-secretase 1 [11]): 250 nM | IC50 (Cholinesterase [22]): 210 nM

Fc1ccc(-c2nnc(N3CCN(c4ccccn4)CC3)o2)c(F)c1
IC50 (Beta-secretase 1 [11]): 210 nM | IC50 (Cholinesterase [22]): 160 nM

COc1ccc2c3c1O[C@H]1C[C@@H](O)C=C[C@@]31CCN(CCCCCCNC13CC4CC(C)(CC(C)(C4)C1)C3)C2 [MEMAGAL]
IC50 (Acetylcholinesterase [2]): 1.16 nM

O=C(/C=C/c1ccc(OCc2ccccc2)cc1)c1ccc2c(c1)OCO2
IC50 [12]: 8610 nM | IC50 (Acetylcholinesterase [17]): 5400 nM | IC50 [6]: 1540 nM
